Some test systems named below: OVCAR-8; A549; SNB-75; SW-620; SF-295; HCT-15; CAKI-1; SK-MEL-2; MDA-MB-435; UACC-257; SN12C; MDA-MB-231; UACC-62; TK-10; U-251; UO-31; MOLT-4; M14; CCRF-CEM; NCI-H460.
Holding throughout (experiment): growth of human tumour cells (NCI), 48 h

Each structure is given as a SMILES string.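 Method: 48-hour compound exposure of cells in 96-well plates, five concentrations, linear interpolation of endpoints. Abbreviation: GI50, concentration required for 50% inhibition of growth.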 Activity calls are given as the source filed them. No stated cut-off is given here; in the data, active = GI50 up to about 1.1 µM and inactive = higher.

Consider `C[C@H](CCC(=O)NCCS(=O)(=O)O)[C@H]1CC[C@H]2[C@@H]3CC[C@@H]4C[C@H](O)CC[C@]4(C)[C@H]3CC[C@]12C`, for which the GI50 is > 100 µM (inactive) in the test with OVCAR-8; > 100 µM (inactive) in the test with A549; > 100 µM (inactive) in the test on SNB-75; > 100 µM (inactive) with SW-620; > 100 µM (inactive) with SF-295; above 100 µM with HCT-15. Also, the GI50 with CAKI-1, with SK-MEL-2, with MDA-MB-435, in the test on UACC-257, in the test with SN12C and with MDA-MB-231 was > 100 µM (inactive) throughout. Further, the GI50 was > 100 µM (inactive) in the test on UACC-62; > 100 µM (inactive) in the test on TK-10; > 100 µM (inactive) with U-251; > 100 µM (inactive) in the test with UO-31; 91 µM (inactive) in the test with MOLT-4; > 100 µM (inactive) in the test on M14. Moreover, the GI50 with CCRF-CEM and with NCI-H460 was > 100 µM (inactive) each time.
For the compound `CCc1ccc2c(c1)/C(=C1/Nc3ccccc3C1=O)C(=O)N2`, the GI50 was 7.46 µM (inactive) with OVCAR-8; 13.8 µM (inactive) in the test with A549; 22.3 µM (inactive) in the test on SNB-75; 63.2 µM (inactive) with SW-620; 20.2 µM (inactive) with SF-295; 31.7 µM in the test on HCT-15. The GI50 in the test with CAKI-1 was 17.2 µM (inactive); in the test with SK-MEL-2 it was 17.1 µM (inactive); in the test with MDA-MB-435, 25.5 µM (inactive); in the test on UACC-257, 30.5 µM (inactive); with SN12C, 68.2 µM (inactive); in the test on MDA-MB-231, 34 µM (inactive). The GI50 with UACC-62 was 15.4 µM (inactive); with TK-10, 17 µM (inactive); with U-251, 13.5 µM (inactive); in the test with UO-31 it was 7.38 µM (inactive); with MOLT-4, 19.2 µM (inactive); with M14, 26.7 µM (inactive). Moreover, the GI50 in the test on CCRF-CEM is 36.1 µM (inactive); in the test on NCI-H460, 23.3 µM (inactive).
For `Cc1cc2nc(N3C(=O)/C(=C/c4ccc(N(C)C)cc4)N=C3c3ccccc3)sc2cc1C`, the GI50 in the test on OVCAR-8 is 32.3 µM (inactive); with A549 it was 33.2 µM (inactive); in the test with SNB-75, 22.9 µM (inactive); in the test with SW-620, 24.7 µM (inactive); with SF-295 it was 33.6 µM (inactive); in the test on HCT-15, 32.5 µM. For the same compound, the GI50 was 43.9 µM (inactive) in the test on CAKI-1; 24.1 µM (inactive) in the test on SK-MEL-2; 7.46 µM (inactive) with MDA-MB-435; 27.2 µM (inactive) in the test on UACC-257; 18.7 µM (inactive) in the test on SN12C; 26 µM (inactive) in the test with MDA-MB-231. In addition, the GI50 in the test with UACC-62 was 20.3 µM (inactive); in the test with TK-10, 58.9 µM (inactive); with U-251, 32.7 µM (inactive); in the test on UO-31, 24.2 µM (inactive); in the test with MOLT-4, 1.14 µM (inactive); with M14, 26.7 µM (inactive). For the same compound, the GI50 is 11.3 µM (inactive) in the test with CCRF-CEM and 23 µM (inactive) in the test with NCI-H460.
Consider `O=C(NC(Cc1c[nH]c2ccccc12)C(=O)O)/C(=C/c1ccccc1)NC(=O)c1ccccc1` (stereo not given), for which the GI50 was 57.5 µM (inactive) in the test with OVCAR-8; 38.2 µM (inactive) with A549; 32.7 µM (inactive) in the test with SNB-75; > 100 µM (inactive) in the test on SW-620; 36.4 µM (inactive) with SF-295; above 55.1 µM in the test on HCT-15. The GI50 with CAKI-1 is > 95.1 µM (inactive); with SK-MEL-2, 57.5 µM (inactive); in the test on MDA-MB-435, 78.9 µM (inactive); in the test with UACC-257, > 88.7 µM (inactive); in the test on SN12C, > 100 µM (inactive); in the test with MDA-MB-231, > 44.6 µM (inactive). Further, the GI50 was 41.2 µM (inactive) in the test on UACC-62; > 72.8 µM (inactive) in the test on TK-10; 46.8 µM (inactive) in the test on U-251; 53.2 µM (inactive) in the test with UO-31; 51.1 µM (inactive) with MOLT-4; 46 µM (inactive) in the test on M14. For the same compound, the GI50 is > 66.4 µM (inactive) with CCRF-CEM and 68.1 µM (inactive) with NCI-H460.
Turning to `O=C1c2cccc([N+](=O)[O-])c2C(=O)N1c1ncn[nH]1`, the GI50 was 79.3 µM (inactive) with OVCAR-8; > 100 µM (inactive) in the test with A549; 23.6 µM (inactive) with SNB-75; > 100 µM (inactive) in the test with SW-620; 51.5 µM (inactive) with SF-295; above 100 µM in the test on HCT-15. The GI50 with CAKI-1 was > 100 µM (inactive); with SK-MEL-2 it was 41.2 µM (inactive); in the test with MDA-MB-435, > 100 µM (inactive); in the test on UACC-257 it was > 100 µM (inactive); in the test on SN12C it was > 100 µM (inactive); in the test on MDA-MB-231, 56.6 µM (inactive). In addition, the GI50 in the test with UACC-62 is > 100 µM (inactive); in the test with TK-10 it was 27.2 µM (inactive); in the test on U-251 it was 38.6 µM (inactive); with UO-31, > 100 µM (inactive); in the test on MOLT-4 it was > 100 µM (inactive); with M14, > 100 µM (inactive). Besides, the GI50 in the test on CCRF-CEM and in the test with NCI-H460 was > 100 µM (inactive) throughout.
For `COc1ccc(P2(=S)OCCOP(=S)(c3ccc(OC)cc3)S2)cc1` (stereo not given), the GI50 was 3.47 µM (inactive) in the test with OVCAR-8; 3.01 µM (inactive) with A549; > 52.7 µM (inactive) with SNB-75; 4.54 µM (inactive) in the test on SW-620; 2.53 µM (inactive) in the test with SF-295; 2.29 µM in the test on HCT-15. Besides, the GI50 with CAKI-1 is 2.31 µM (inactive); in the test on SK-MEL-2, 3.51 µM (inactive); in the test on MDA-MB-435, 1.39 µM (inactive); with UACC-257 it was 11.2 µM (inactive); in the test with SN12C it was 2.56 µM (inactive); with MDA-MB-231, 3.13 µM (inactive). Moreover, the GI50 with UACC-62 is 4.16 µM (inactive); in the test on TK-10 it was 16.3 µM (inactive); in the test on U-251, 4.03 µM (inactive); with UO-31, 0.638 µM (active); with MOLT-4, 2.87 µM (inactive); with M14, 5.14 µM (inactive). For the same compound, the GI50 in the test with CCRF-CEM is 2.97 µM (inactive); in the test with NCI-H460 it was 2.65 µM (inactive).
In the case of `O=C1C(C(O)(C(F)(F)F)C(F)(F)F)CCC1C(O)(C(F)(F)F)C(F)(F)F` (stereo not given), the GI50 was 8.75 µM (inactive) with OVCAR-8; 1.91 µM (inactive) in the test on A549; 0.234 µM (active) with SNB-75; 5.89 µM (inactive) in the test on SW-620; 0.849 µM (active) with SF-295; 28.3 µM in the test with HCT-15. Moreover, the GI50 in the test with CAKI-1 was 0.341 µM (active); with SK-MEL-2, 0.522 µM (active); with MDA-MB-435, 13.2 µM (inactive); in the test on UACC-257, 7.67 µM (inactive); in the test with SN12C, 0.684 µM (active); with MDA-MB-231 it was 0.746 µM (active). In addition, the GI50 with UACC-62 was 1.78 µM (inactive); with TK-10 it was 42.1 µM (inactive); in the test on U-251, 13.5 µM (inactive); with UO-31 it was 1.09 µM (active); in the test with MOLT-4, 0.341 µM (active); with M14 it was 8.71 µM (inactive). For the same compound, the GI50 in the test with CCRF-CEM is 1.15 µM (inactive); in the test on NCI-H460 it was 8.83 µM (inactive).
As for `Cc1c(C)c(S(=O)(=O)N(CCCCCCN)OCCCN)c(C)c2c1OC(C)(C)CC2`, the GI50 is 8.17 µM (inactive) with OVCAR-8; 4.94 µM (inactive) in the test with A549; 2.99 µM (inactive) in the test on SNB-75; 7.45 µM (inactive) with SW-620; 7.5 µM (inactive) in the test on SF-295; 15.1 µM in the test on HCT-15. Also, the GI50 in the test on CAKI-1 is 15.8 µM (inactive); in the test on SK-MEL-2 it was 2.42 µM (inactive); in the test on MDA-MB-435, 5.37 µM (inactive); in the test on UACC-257, 11 µM (inactive); in the test on SN12C it was 13 µM (inactive); in the test with MDA-MB-231, 3.56 µM (inactive). For the same compound, the GI50 was 11.4 µM (inactive) with UACC-62; 14.3 µM (inactive) with TK-10; 4.46 µM (inactive) with U-251; 11.8 µM (inactive) with UO-31; 2.18 µM (inactive) with MOLT-4; 17.8 µM (inactive) in the test with M14. The figures for the GI50 in the test with CCRF-CEM and in the test with NCI-H460 were 2.31 µM (inactive) and 2.69 µM (inactive), respectively.
Take `COc1ccc(OC)c(NC(=O)C(=O)Nn2c(S)nc3ccccc3c2=O)c1`: the GI50 with OVCAR-8 is > 100 µM (inactive); with A549 it was > 100 µM (inactive); in the test with SNB-75, > 100 µM (inactive); in the test on SW-620, > 100 µM (inactive); in the test with SF-295 it was > 100 µM (inactive); in the test with HCT-15, above 100 µM. The GI50 in the test with CAKI-1, in the test on SK-MEL-2, in the test with MDA-MB-435, with UACC-257, in the test on SN12C and in the test on MDA-MB-231 was > 100 µM (inactive) each time. In addition, the GI50 in the test with UACC-62, in the test with TK-10, with U-251, with UO-31, with MOLT-4 and with M14 was > 100 µM (inactive) throughout. The GI50 with CCRF-CEM and in the test on NCI-H460 was > 100 µM (inactive) throughout.
As to `CN(C)CC1CN(C(=O)Nc2ccccc2)C(=N)O1` (stereo not given), the GI50 was > 100 µM (inactive) in the test with OVCAR-8; > 100 µM (inactive) in the test with A549; > 100 µM (inactive) in the test with SNB-75; > 100 µM (inactive) with SW-620; > 100 µM (inactive) in the test on SF-295; above 100 µM with HCT-15. In addition, the GI50 in the test with CAKI-1, in the test on SK-MEL-2, in the test on MDA-MB-435, in the test with UACC-257, in the test with SN12C and in the test on MDA-MB-231 was > 100 µM (inactive) in each case. In addition, the GI50 in the test on UACC-62, in the test on TK-10, in the test with U-251, with UO-31, in the test on MOLT-4 and in the test on M14 was > 100 µM (inactive) each time. In addition, the GI50 in the test on CCRF-CEM and in the test with NCI-H460 was > 100 µM (inactive) in each case.
